Results as given in PMC5642494 (Oncotarget, 2017).

What was measured:
ZR-75-1 xenograft tumors [1] = assay: In vivo target inhibition, immunoblotting of ZR-75-1 xenograft tumors; parameters: species or system mouse; settings: 50 or 75 mg/kg QD x 5, Western blots
Description: Control animals were treated with vehicle (1% HEC/ 25 mM phosphate buffer, pH = 2) using the same schedule of dosing. The red bar just above the X-axis illustrates the duration of the treatment period. Tumor volume measurements were taken routinely during the course of the study and are plotted as mean +/- SEM versus days following tumor cell implantation. (B) Body weights were recorded routinely during the course of the study and are plotted as mean % change (+/– SEM) relative to the mean body weight recorded on the day just prior to the first day of dosing (baseline day = 27). (C) The waterfall plots indicate the relative tumor volumes for individual animals which were determined at the end of the dosing period (study day 55). […] Growth inhibition is observed in those instances where the calculated changes in %DT/C are less than 100% whereby greater inhibition results in smaller %DT/C values. Change in %DT/C values that are less than zero indicate regressions whereby the tumor volumes on day 55 are smaller than the baseline tumor volume measured on the day prior to the initiation of dosing (baseline day = day 27). […] The tumor volumes measured on day 27 served as the baseline volumes for the calculation of %DT/C. […] Potential CDK9 inhibition was assessed by measuring the expression of MCL1 or phosphorylation of serine 2 on the C-terminal domain repeat on RNA polymerase II (pCTD). […]

ZR-75-1 xenograft tumors [2] = assay: mRNA expression of cell cycle regulatory genes in ZR-75-1 xenograft tumors; format: in vivo, mouse; settings: 50 or 75 mg/kg QDx5; Cyclin E, MCM7, CDKN2C, PTEN, AURA, CCNB1, FOXM1, RRM2, MKI67, Topo IIα
Description: page 4: or pHH3 facilitates quantification of the inhibition of #79654). The suspension was placed on the Qiashredder cell cycle progression since lower expression of these 2 columns (Qiagen #79654) and RNA was purified by biomarkers quantitatively correlates with the extent of following the protocol for the RNAeasy Mini Kit (Qiagen progression of cells through either S-phase (Topo IIα) or # 74104). Following the last wash, the purified RNA was M-phase (pHH3). The inhibition of CDK9 was assessed eluted using […] RNase-free water and collected in by measuring the inhibition of either MCL1 expression labeled DNase/RNase-free collection tubes. The quantity or phosphorylation of […] on the C-terminal domain of RNA was measured by spectral analysis using the repeat on RNA polymerase II (pCTD). The visualization Nanodrop Spectrophotometer (NanoDrop Products, of the signals corresponding to these biomarkers was Wilmington, DE, USA) and then placed in -80 degree […] achieved through development with the ECL SuperSignal freezer for analysis. The cDNA preparation was completed chemo-luminescence kit (Pierce) and image capture using as described in the included kit protocol using Superscript the Fuji LAS400 image capture instrument. […] Isolation and purification of RNA from tumors All samples, once quantitated, were delivered to […] […]

## CCN1CCN(Cc2ccc(Nc3ncc(F)c(-c4cc(F)c5nc(C)n(C(C)C)c5c4)n3)nc2)CC1 [abemaciclib, Abemaciclib]
ZR-75-1 xenograft tumors [1]
  CDK9 inhibition in tumors (pCTD, MCL1 expression): not inhibited at any dose
ZR-75-1 xenograft tumors [1]; tumors collected 24 hours later
  phospho-(Ser780/807/811)-Rb, Topo IIα and phospho-(Ser10)-H3 in tumors: inhibition of phospho-(Ser780/807/811)-Rb
ZR-75-1 xenograft tumors [2]
  mRNA expression of cell cycle genes in tumors: suppression of the expression of several genes
